According to patent publication US10526581B2, “Modulation of cardiac stem-progenitor cell differentiation, assays and uses thereof” (priority 2013, dated 2020):

What was measured:
[1] = test system: rats with ISO+5-FU cardiomyopathy; assay: hemodynamic measurements (LV catheterization) after tail vein cell injection in ISO+5-FU cardiomyopathy; type: in vivo, rat; details: (84 d) 3 months
[2] = test system: adult myocytes isolated from Tg^c-kit/GFP mice; assay: ISO in vitro on adult myocytes isolated from Tg^c-kit/GFP mice; type: cell-based, mouse; details: ISO 10 nM, cultured for 48 hrs
[3] = test system: rats with ISO+5-FU cardiomyopathy; assay: echocardiography after tail vein cell injection in ISO+5-FU cardiomyopathy; type: in vivo, rat; details: (84 d) 3 months
[4] = test system: rats after ISO damage; details: at 28 days
[5] = test system: adult rat myocardium; assay: diffuse myocardial damage by single ISO injection in rats: eCSC activation; type: in vivo
Text: Adult c-kit^poseCSCs are scattered throughout the myocardium with higher density within the atria and the ventricular apex (10). When the apical myocardium is severely injured by catecholamine overdrives, induced through Isoproterenol bolus injection, c-kit^poseCSCs are rapidly activated and respond to damage by increasing their number (16) and differentiate into cardiomyocyte lineage (Unpublished data). The same growth response by these cells is detectable in the ischemic myocardium (17) as well as in hearts with pathologic or physiological overload (18,19). During embryonic life, a progressive process of cell specification or commitment, precisely regulated in space and time, determine cardiac muscle cell creation from cardiac progenitor cells (20). In the latter phenomenon, “cell-autonomous” decisions (intrinsic to a cell) are accompanied by “cell-non-autonomous” events, which entail extracellular cardiomyogenic instructive molecules known as morphogens or cardiopoietic growth factors (cGFs) (8,9). […] The mRNA levels for different cGFs and their detection by immunohistochemistry correlated with the levels of the corresponding protein (FIG. 4).
Diffuse myocardial damage was induced by a single injection (s.c.) of isoproterenol (ISO) to rats (5 mg kg^−1) or mice (200 mg kg^−1). […] Mer-CreMer mice were kindly provided by Drs. Tammie Bishop and Ludwig Thierfelder (see below). ZEG and RYP mice were purchased at Jackson Laboratory.
To follow c-kit^poseCSC physiological response to cardiac injury, we induced severe diffuse myocardial damage in adult rats with a single high dose of isoproterenol (ISO) (Ellison et al., 2007b). New cell formation was monitored with BrdU labeling in vivo (Waring et al., 2012). In the presence of a patent coronary circulation, ISO produces a Takotsubo-like cardiomyopathy (Akashi et al., 2008) with both diffuse sub-endocardial and apical CM death. This acute insult kills 8-10% of the LV CMs and results in overt acute heart failure (Ellison et al., 2007b). […] While in the normal myocardium (CTRL) most c-kit^poseCSCs are quiescent (>90% BrdU^neg and Ki67^neg), after ISO damage a high fraction enters the cell cycle (FIG. 14A-C and FIG. 21). At day 3, ˜88% are BrdU^pos (FIG. 14C), leading to an ˜8-fold increase in eCSC number, which decreases thereafter but remains above CTRL for up to 28 days (FIG. 14A).
The expansion of the eCSC pool in response to CM loss by ISO damage was followed by their commitment to myocardial cell lineages. […]

CC(C)NCC(O)c1ccc(O)c(O)c1 (stereo not drawn) [ISO, isoproterenol]
LVDevP [1]: 98.9 ± 10.6 mmHg | LVEDP [1]: 2.2 ± 2.3 mmHg | dP/dt+ [1]: 8344 ± 1294 mmHg/s | dP/dt− [1]: 7936 ± 1072 mmHg/s | ANP expression (fetal myocyte gene program) [2]: increased ANP expression | c-kit/GFP transcription in adult myocytes [2]: unable to activate | EF [3]: 88.6 ± 2.56% | FS [3]: 51.7 ± 3.7% | LVIDd [3]: 5.25 ± 0.42 mm | LVIDs [3]: 2.53 ± 0.31 mm | mortality [4]: 0 of 10 | expression of cardiopoietic growth factors in the myocardium ([5]; after ISO injection): significantly increased expression | increase of c-kit^posNkx2.5^posGATA4^pos cells over CTRL ([5]; by day 3 after ISO): ~4 fold | BrdU^pos c-kit^pos eCSCs ([5]; day 3 after ISO): ~88% | increase in eCSC number ([5]; day 3 after ISO): ~8 fold
